From patent publication US20240082212A1, “USE OF MDMA FOR TREATMENT OF STRESS-RELATED DISORDERS” (priority 2022, published 2024)

Key:
Adrenergic α2A = target: T1, Adrenergic α2A (Homo sapiens, UniProt P08913); assay: Eurofins Panlabs radioligand binding panel, adrenergic α2A; conditions: 10 uM
T1 sequence (P08913 1-465): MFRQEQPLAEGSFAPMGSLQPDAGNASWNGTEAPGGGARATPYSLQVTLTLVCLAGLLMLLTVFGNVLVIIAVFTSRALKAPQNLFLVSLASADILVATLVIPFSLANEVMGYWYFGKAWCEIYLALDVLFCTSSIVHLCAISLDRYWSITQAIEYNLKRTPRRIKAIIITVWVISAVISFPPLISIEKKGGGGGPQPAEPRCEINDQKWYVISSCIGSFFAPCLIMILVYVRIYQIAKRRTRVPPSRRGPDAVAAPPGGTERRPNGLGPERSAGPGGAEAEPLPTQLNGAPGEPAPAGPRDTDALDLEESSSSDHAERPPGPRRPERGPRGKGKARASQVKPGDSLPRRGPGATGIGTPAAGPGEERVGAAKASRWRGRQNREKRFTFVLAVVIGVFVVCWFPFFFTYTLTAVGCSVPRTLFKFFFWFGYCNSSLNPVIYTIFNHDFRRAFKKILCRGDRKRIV
Protocol: Each of the compounds was evaluated for binding to 87 different targets as part of a panel (Eurofins Panlabs, Taiwan, China). Each compound was tested at a single concentration of […]. The panel included mostly G-protein-couple receptors, ion channels, enzymes, transporters and nuclear receptors, expressed in the central nervous system, cardiovascular, respiratory, gastrointestinal and renal systems. A limited number of targets were of pig, rat or guinea pig origin. Targets were expressed in human recombinant cells lines, rat brain or spinal cord, guinea pig brain or pig heart. Methods were adapted from the scientific literature to maximize reliability and reproducibility. Reference standards were run as an integral part of each assay to ensure validity of the results obtained (available online at the eurofins website for the safety screen 87 panel).

Adrenergic α2B = target: T2, Adrenergic α2B (Homo sapiens, UniProt P18089); assay: Eurofins Panlabs radioligand binding panel, adrenergic α2B; conditions: 10 uM
T2 sequence (P18089 1-450): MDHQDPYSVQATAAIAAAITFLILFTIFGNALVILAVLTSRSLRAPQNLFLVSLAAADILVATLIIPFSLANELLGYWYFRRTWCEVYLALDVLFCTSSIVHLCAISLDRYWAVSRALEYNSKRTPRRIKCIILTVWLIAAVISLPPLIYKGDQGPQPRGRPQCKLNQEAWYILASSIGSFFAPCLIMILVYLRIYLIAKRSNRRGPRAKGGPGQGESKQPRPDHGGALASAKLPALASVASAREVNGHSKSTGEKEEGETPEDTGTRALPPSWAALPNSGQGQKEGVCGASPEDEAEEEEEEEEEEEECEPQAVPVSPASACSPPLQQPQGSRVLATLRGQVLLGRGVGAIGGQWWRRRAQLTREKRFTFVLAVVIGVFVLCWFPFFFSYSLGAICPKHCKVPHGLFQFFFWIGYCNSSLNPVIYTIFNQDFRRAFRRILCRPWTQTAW

[1] = rats; 1 week after 4 hourly SC injections at 10 mg/kg/injection (Biezonski et al., 2013); cited from earlier work

Compound | % inhibition of binding or activity (Adrenergic α2A) [%] | % inhibition of binding or activity (Adrenergic α2B) [%] | frontal cortical and striatal monoamine concentrations [1]
C[C@H](N)Cc1ccc2c(c1)OCO2 [S-MDA, S(+)-MDA] | 63 | 51 | –
CNC(C)Cc1ccc2c(c1)OCO2 (racemic) [Racemic MDMA, 3,4-methylenedioxymethamphetamine] | – | – | significant reductions in frontal cortical 5-HT and 5-HIAA and striatal DOPAC and HVA concentrations
